Source: ChEMBL document CHEMBL1212743, “Absorption, pharmacokinetics, and safety of triclosan after dermal administration” (Antimicrob Agents Chemother, 2010)

Assays:
Type in all cases: ADME, organism-based
[1] = Apparent half-life of the terminal disposition phase half life in percutaneously dosed healthy human at 1166 mg; settings: in vivo, topical or ocular, read-out: t1/2 lambda z (converted)
[2] = Absorption in percutaneously dosed healthy human at 1166 mg; settings: in vivo, topical or ocular, read-out: Activity
Homo sapiens = assay: Time to reach maximum urine excretion rate in percutaneously dosed healthy human at 1166 mg; settings: in vivo, topical_or_ocular
[3] = Excretion in percutaneously dosed healthy human urine at 1166 mg up to 48 hrs; settings: topical or ocular, read-out: Activity

In the case of `Oc1cc(Cl)ccc1Oc1ccc(Cl)cc1Cl` [TRICLOSAN], the half-life [1] is reported as 10.8 h, the Fa [2] is reported as 5.9% and the Time (Homo sapiens) is reported as 11 h. It also gave a dose excreted at 48 h [3] of 4.9%.
